From patent EP0463173B1, “HAIR TONIC AND DRESSING COMPOSITION” (OTSUKA PHARMACEUTICAL CO., LTD., priority 1990, dated 1991)

Test system: shaved mice
Assay: Hair grow-promoting effect in shaved mice (method of Kubo et al.), hair grow score
Format: in vivo, ddy male mice
Settings: 0.2 ml of 0.2 % solution in 75 % ethanol applied to shaved back once a day, score 0-4, 15 mice
Method: According to the method of Kubo et al. (Yakugaku Zasshi 108 (10) P971-978 (1988)), an experiment was conducted using six weeks old ddy male mice. Depilatory cream was applied to the back of mice, and after 8 minutes, wiped off with absorbent cotton soaked with hot water at 40°C to remove hair at 4 to 5 cm². The next day, those mice with no injury and undepilated hair were selected and used as shaved mice. Each experimental group consisted of 15 mice.
Each 0.2 ml of a solution to be tested and a control solution were uniformly applied to the shaved part of mice with a brush once a day for 18 days.
Evaluation of the hair grow-promoting effect was conducted by evaluating a hair grow score at two day intervals for 18 days and testing a significance difference with Willcoxon Rank sum test. The following hair grow score standards were employed: 0: Completely no growth of hair is observed with naked eye 1: Recovery up to 25 % of normal state 2: Recovery up to 50 % of normal state 3: Recovery up to 75 % of normal state 4: Recovery up to nearly normal state and each standard score were further subdivided into three stages and hair grow score was obtained for each mouse.
The samples used for testing for effect were as follows: Control: 75 % etanol solution Preparation of the present invention: 0.2 % 6-[4-(1-cyclohexyl-1,2,3,4-tetrazol-5-yl)butoxy]-3,4-dihydrocarbostyril in 75 % ethanol solution The results are shown in Table 1.

O=C1CCc2cc(OCCCCc3nnnn3C3CCCCC3)ccc2N1 [Prep. of invention, 6-[4-(1-cyclohexyl-1,2,3,4-tetrazol-5-yl)butoxy]-3,4-dihydrocarbostyril]
mean hair grow score ± S.E. (day 8 of treatment): 0.12±0.07
mean hair grow score ± S.E. (day 10 of treatment): 0.17±0.07
mean hair grow score ± S.E. (day 12 of treatment): 0.72±0.17
mean hair grow score ± S.E. (day 14 of treatment): 1.45±0.23
mean hair grow score ± S.E. (day 16 of treatment): 2.25±0.27
mean hair grow score ± S.E. (day 18 of treatment): 2.58±0.28
